Structures can show the parent of a compound that is named as a salt. Where two headings read alike, the source gives them in different places. Values belong to the molecule of their own block, whether it stands above or below them.
How the values were obtained:
HT29 tumor-bearing mice [1] = assay: Effect of D-penicillamine on in vivo pharmacokinetics of ^64Cu-ATSM in HT29 tumor-bearing mouse (1): before/after dosing; details: vs saline
HT29 tumor-bearing mice [2] = assay: Effect of repeated D-penicillamine with or without glycerin enema on in vivo pharmacokinetics and excretion of ^64Cu-ATSM in HT29 tumor-bearing mouse (4); details: D-penicillamine 100 mg/kg oral at 1, 3 and 5 hours after ^64Cu-ATSM, vs saline
From the text: FIGS. 12A, 12B and 12C were expressed in average and standard deviation for 4 mice.

HT29 tumor-bearing mice [3] = assay: Effect of D-penicillamine on in vivo pharmacokinetics and excretion of ^64Cu-ATSM in HT29 tumor-bearing mouse (2): dose dependence; details: D-penicillamine 100, 300 or 500 mg/kg oral 1 hour after ^64Cu-ATSM, vs saline
HT29 tumor-bearing mice [4] = assay: Effect of D-penicillamine on in vivo pharmacokinetics and excretion of ^64Cu-ATSM in HT29 tumor-bearing mouse (3): repeated administration; details: D-penicillamine 100 mg/kg oral 3 times at 1-hour or 2-hour intervals, vs saline
[5] = ^64Cu complex exchange reaction between ^64Cu-ATSM and chelating agent in mouse plasma (TLC); details: 37° C., chelating agent 10 mg/mL, ^64Cu-ATSM 6 μCi/mL, 5, 30 or 60 minutes
Protocol: Blood collected from BALB/c nude mice (male, 6-week old, about 25 g in body weight, obtained from Japan SLC, Inc.) under diethyl ether anesthesia was centrifuged (high-speed cooling centrifuge Model MX-105, from Tomy Co., Ltd., 3,000 rpm, 10 minutes) to provide plasma. In the mouse plasma maintained at 37° C. was mixed each of D-penicillamine, dimercaprol, trientine hydrochloride, and deferoxamine mesylate to a final concentration of 10 mg/mL, to which ^64Cu-ATSM was then added to a final concentration of 6 μCi/mL. After maintaining each of the mixtures at 37° C. for 5 minutes, 30 minutes, or 60 minutes, methanol cooled at 4° C. in advance was added in an equal amount to the plasma thereto, which was thoroughly mixed and centrifuged (as above), followed by analyzing the supernatant by a TLC method.

HT29 tumor-bearing mice [6] = assay: Effect of D-penicillamine on PET imaging of ^64Cu-ATSM in HT29 tumor-bearing mouse; format: in vivo
Protocol: The distribution of radioactivity was imaged using a PET device specific for small animals (Inveon, from Siemens Medical Systems, Inc.) 30 minutes and 2, 3, 4, 5, 6, 7, 8, and 24 hours after the administration of ^64Cu-ATSM. Image acquisition was performed for 5 minutes from each time point, and the image was reconstructed by a 3-dimensional maximum a posteriori probability method (3D-MAP method) using Inveon Acquisition Workplace Software (from Siemens Medical Systems, Inc.). As a control, PET imaging was also similarly performed in mice receiving the administration of saline in place of D-penicillamine.

HT29 tumor-bearing mice [7] = assay: Effect of Ca-DTPA on in vivo pharmacokinetics of ^64Cu-ATSM in HT29 tumor-bearing mouse (Comparative Example 1); details: Ca-DTPA 150 mg/kg i.v. 10 minutes after ^64Cu-ATSM; 1 and 2 hours; vs saline
HT29 tumor-bearing mice [8] = details: trientine hydrochloride 500 mg/kg oral 1 hour after ^64Cu-ATSM; vs saline
Protocol: Human large bowel cancer-derived HT29 cells were purchased from ATCC and proliferated for use. The HT29 tumor-bearing model was prepared by implanting 1×10^7 HT29 cells subcutaneously in the femoral region of BALB/c nude mice (male, 6-week old, about 25 g in body weight, obtained from Japan SLC, Inc.), and used for the experiment 3 weeks after implantation. The tumor-bearing mice were fasted from 16 hours or more before the start of the experiment. 185 kBq (5 μCi) of ^64Cu-ATSM was administered through the tail vein of the HT29 tumor-bearing mice, and D-penicillamine was orally administered to 500 mg/kg 10 minutes therebefore or 1 hour thereafter. Saline was administered to a control group in place of D-penicillamine. They were sacrificed by blood removal from the heart under diethyl ether anesthesia 1, 2, and 3 hours after the administration of ^64Cu-ATSM; each tissue was removed and weighed; and radioactivity was further measured using an automatic gamma counter (Model: 1480 Wizard 3, from PerkinElmer Co., Ltd.). The radioactivity distributed in each organ was expressed as radioactivity per g of organ (% ID (Injected Dose)/g tissue) when the amount administered is set to 100%. 185 kBq (5 μCi) of ^64Cu-ATSM was administered through the tail vein of the HT29 tumor-bearing mice prepared by the same method as Example 3, and D-penicillamine was orally administered to 100, 300, or 500 mg/kg 1 hour thereafter. Saline was administered to a control group in place of D-penicillamine. They were sacrificed by blood removal from the heart under diethyl ether anesthesia 2, 4, 6, 16, and 24 hours after the administration of ^64Cu-ATSM; each tissue was removed and weighed; and radioactivity was further measured. The excreted urine and feces were recovered, and radioactivity was similarly measured. The radioactivity distributed in each organ was expressed as ID/g tissue. The excretion of radioactivity into each of urine and feces was expressed as radioactivity (% ID) when the amount administered was set to 100%. 185 kBq (5 μCi) of ^64Cu-ATSM was administered through the tail vein of the tumor-bearing mice prepared by the same method as Example 3, and trientine hydrochloride was orally administered to 500 mg/kg 1 hour thereafter. Saline was administered to a control group in place of trientine hydrochloride. Thereafter, radioactivity in each organ, urine, and feces was measured as Example 4; the radioactivity distributed in each organ was expressed as % ID/g tissue, and the excretion of radioactivity into urine and feces was expressed as % ID.

tumor = details: Yoshii et al. 2011; cited from earlier work
CD133-positive cells = details: Yoshii et al. 2010; cited from earlier work
[9] = D-penicillamine 300 mg/kg oral 1 hour after 37 MBq ^64Cu-ATSM, vs saline

SMILES: OCC(S)CS (stereo not drawn) [dimercaprol]
^64Cu complex exchange reaction from ^64Cu-ATSM to a highly polar complex [5]: Cu-ATSM and unidentified metabolites or degradation products rapidly disappeared, and the origin component increased

SMILES: CN=C([S-])N/N=C(C)/C(C)=N/NC([S-])=NC.[64Cu+2] [^64Cu-ATSM, radioactive diacetyl-bis(N4-methylthiosemicarbazone) copper complex]
amount of CD133-positive cells in tumor (tumor): decreased the amount of CD133-positive cells in tumor
tumor size (tumor): shrink the tumor
accumulation in CD133-positive cells (CD133-positive cells): accumulates in CD133-positive cells
radioactivity accumulation in the liver after ^64Cu-ATSM (PET) (HT29 tumor-bearing mice [6]; 37 MBq ^64Cu-ATSM i.v., before chelating agent): radioactivity accumulation in the liver was once observed

SMILES: CC(=O)N(O)CCCCCNC(=O)CCC(=O)N(O)CCCCCNC(=O)CCC(=O)N(O)CCCCCN [deferoxamine mesylate]
^64Cu complex exchange reaction from ^64Cu-ATSM to a highly polar complex [5]: No complex exchange reaction

The next lines start with results.

uptake of ^64Cu-ATSM into the tumor (HT29 tumor-bearing mice [1]; D-penicillamine 500 mg/kg oral 1 hour after ^64Cu-ATSM): did not affect
uptake of radioactivity into the liver (HT29 tumor-bearing mice [1]; D-penicillamine 500 mg/kg oral, 10 minutes before or 1 hour after ^64Cu-ATSM i.v., 1, 2, 3 hours): markedly decreased
uptake of radioactivity into the liver (HT29 tumor-bearing mice [2]; 6, 16, 24 hours): decreased
excretion of radioactivity into urine (HT29 tumor-bearing mice [2]): statistically significantly promoted
uptake of radioactivity into the tumor (HT29 tumor-bearing mice [2]): not statistically significantly affected
uptake of radioactivity into the liver (HT29 tumor-bearing mice [3]; 2-24 hours): dose-dependently decreased
excretion of radioactivity into feces (HT29 tumor-bearing mice [3]): less affected
excretion of radioactivity into urine (HT29 tumor-bearing mice [3]): statistically significantly promoted
uptake of radioactivity into the tumor (HT29 tumor-bearing mice [3]): not statistically significantly affected
uptake of radioactivity into the liver (HT29 tumor-bearing mice [4]; from 1 hour after ^64Cu-ATSM): decreased
excretion of radioactivity into feces (HT29 tumor-bearing mice [4]): less affected
excretion of radioactivity into urine (HT29 tumor-bearing mice [4]): statistically significantly promoted
uptake of radioactivity into the tumor (HT29 tumor-bearing mice [4]): not statistically significantly affected
accumulation of radioactivity in the tumor (PET) (HT29 tumor-bearing mice [6]; [9]): not affected
SMILES: CC(C)(S)[C@@H](N)C(=O)O [D-penicillamine]
uptake of radioactivity into the tumor (HT29 tumor-bearing mice [1]; D-penicillamine 500 mg/kg oral 10 minutes before ^64Cu-ATSM): decreased the uptake of radioactivity into the tumor
^64Cu complex exchange reaction from ^64Cu-ATSM to a highly polar complex [5]: Cu-ATSM and unidentified metabolites or degradation products rapidly disappeared, and the origin component increased
accumulation of radioactivity in the bladder (PET) (HT29 tumor-bearing mice [6]; [9]): increase the accumulation of radioactivity in the bladder
accumulation of radioactivity in the liver (PET) (HT29 tumor-bearing mice [6]; [9]): decrease the accumulation of radioactivity in the liver

uptake of radioactivity into each organ and tumor (HT29 tumor-bearing mice [7]): statistically little affected
SMILES: O=C([O-])CN(CCN(CC(=O)[O-])CC(=O)[O-])CCN(CC(=O)[O-])CC(=O)[O-].[Ca+2].[Na+].[Na+].[Na+] [Ca-DTPA]

excretion of radioactivity into feces (HT29 tumor-bearing mice [8]): less affected
excretion of radioactivity into urine (HT29 tumor-bearing mice [8]): statistically significantly promoted
uptake of radioactivity into the liver (HT29 tumor-bearing mice [8]): tended to be decreased
uptake of radioactivity into the tumor (HT29 tumor-bearing mice [8]): not statistically significantly affected
SMILES: NCCNCCNCCN [trientine hydrochloride]
^64Cu complex exchange reaction from ^64Cu-ATSM to a highly polar complex [5]: the effect thereof was relatively weak
